Experimental data taken from patent US12612412B2, “Antiviral heterocyclic compounds” (Enanta Pharmaceuticals, Inc., priority 2021, dated 2026).

How the values were obtained:
[1] = tested on: genotype A, "Long" strain RSV; test: RSV-A assay (CPE protection in Hep-2 cells, ATPlite readout); assay type: cell-based, Human respiratory syncytial virus (HRSV); settings: human respiratory syncytial virus, genotype A “Long” strain RSV, MOI 0.1, CPE protection, read-out: Human RSV-A (“Long”)
How it was run: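 Hep-2, 8,000 cells/well, MOI 0.1 (PFU- or TCID50-based); 2-fold compound series, duplicates; 5 d incubation; ATPlite luminescence readout; EC50.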

[2] = tested on: recombinant HMPV CAN97-83 containing eGFP (MPV-GFP1); test: HMPV antiviral assay Method-A (MPV-GFP1 eGFP fluorescence in Vero E6 cells); assay type: cell-based, Human metapneumovirus (HMPV); settings: human metapneumovirus, Vero C1008, 120 h, read-out: HMPV EC50
How it was run: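 Vero E6 cells in serum-free OptiMEM with 0.5 μg/mL TPCK-trypsin were infected with eGFP-expressing HMPV CAN97-83 at MOI 0.05, with 8-point twofold dilutions from 8 or 2 μM (0.5% DMSO). After 5 days at 32° C, eGFP fluorescence gave % inhibition versus infected untreated wells. EC50 came from four-parameter logistic fits.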

For `C[C@]1(C(N)=O)COc2c1cc([C@@](O)(CNC(=O)c1ccc3nn(C4CC4)cc3c1)C(F)(F)F)nc2-c1ccc(F)cc1` [Example 170], the EC50 [1] was < 200 nM and the EC50 [2] was < 500 nM.

In the case of `CCc1cc2cc(C(=O)NC[C@](O)(c3cc4c(c(-c5ccc(F)cc5)n3)OC[C@]4(C)C(N)=O)C(F)(F)F)cc(OC)c2nc1C` [Example 174], the EC50 [1] is reported as < 200 nM and the EC50 [2] is reported as > 500 nM.

In the case of `Cc1cc2cc(C(=O)NC[C@](O)(c3cc4c(c(-c5ccc(F)cc5)n3)OC[C@]4(C)C(N)=O)C(F)(F)F)cc(Cl)c2nc1C` [Example 177], the EC50 [1] is reported as < 200 nM and the EC50 [2] is reported as < 500 nM.

For `Cc1cc2cc(C(=O)NC[C@](O)(c3cc4c(c(-c5ccc(F)cc5)n3)OC[C@]4(C)C(N)=O)C(F)(F)F)cc(OC3CC3)c2nc1C` [Example 178], the EC50 [1] was < 200 nM and the EC50 [2] was > 500 nM.

With `Cc1cc2cc(C(=O)NC[C@](O)(c3cc4c(c(-c5ccc(F)cc5)n3)OC[C@]4(C)C(N)=O)C(F)(F)F)cc(OC(F)(F)F)c2nc1C` [Example 179] the EC50 [1] was < 200 nM and the EC50 [2] was > 500 nM.

In the case of `Cc1cc2cc(C(=O)NC[C@](O)(c3cc4c(c(-c5ccc(F)c(Cl)c5)n3)OC[C@]4(C)C(N)=O)C(F)(F)F)cc(Cl)c2nc1C` [Example 182], the EC50 [1] is reported as < 200 nM and the EC50 [2] is reported as < 500 nM.

With `Cc1cc2cc(C(=O)NC[C@](O)(c3cc4c(c(-c5ccc(F)c(Cl)c5)n3)OC[C@]4(C)C(N)=O)C(F)(F)F)cc(OC(F)(F)F)c2nc1C` [Example 184] the EC50 [1] was < 200 nM and the EC50 [2] was > 500 nM.

For `C[C@]1(C(N)=O)COc2c1cc([C@@](O)(CNC(=O)c1cc(Cl)c3[nH]ccc3c1)C(F)(F)F)nc2-c1ccc(F)cc1` [Example 199], the EC50 [1] was < 200 nM and the EC50 [2] was > 500 nM.

For `COc1cc(C(=O)NC[C@](O)(c2cc3c(c(-c4ccc(F)cc4)n2)OC[C@]3(C)C(N)=O)C(F)(F)F)cc2cc[nH]c12` [Example 200], the EC50 [1] was < 200 nM and the EC50 [2] was > 500 nM.

In the case of `COC(=O)Nc1cc(C(=O)NC[C@](O)(c2cc3c(c(-c4ccc(F)cc4)n2)OC[C@]3(C)C(N)=O)C(F)(F)F)cc2cc(C)cnc12` [Example 210], the EC50 [1] is reported as < 200 nM and the EC50 [2] is reported as < 500 nM.

In the case of `COc1cc(C(=O)NC[C@](O)(c2cc3c(c(-c4ccc(F)cc4)n2)OC[C@]3(C)C(N)=O)C(F)(F)F)cn2cc(C3CC3)nc12` [Example 217], the EC50 [1] is reported as < 200 nM and the EC50 [2] is reported as < 500 nM.

For `C[C@]1(C(N)=O)COc2c1cc([C@@](O)(CNC(=O)c1cc(NC(=O)NC3CC3)c3ncc(Cl)cc3c1)C(F)(F)F)nc2-c1ccc(F)cc1` [Example 218], the EC50 [1] was < 200 nM and the EC50 [2] was < 500 nM.

`Cc1cnc2c(NC(=O)NC3CC3)cc(C(=O)NC[C@](O)(c3cc4c(c(-c5ccc(F)c(Cl)c5)n3)OC[C@]4(C)C(N)=O)C(F)(F)F)cc2c1` [Example 219] was tested, and the EC50 [1] was < 200 nM and the EC50 [2] was < 500 nM.

For `C[C@]1(C(N)=O)COc2c1cc([C@@](O)(CNC(=O)c1cc(NC(=O)NC3CC3)c3ncc(Cl)cc3c1)C(F)(F)F)nc2-c1ccc(F)c(Cl)c1` [Example 220], the EC50 [1] was < 200 nM and the EC50 [2] was > 500 nM.

In the case of `Cc1cnc2c(NC(=O)N3CCC3)cc(C(=O)NC[C@](O)(c3cc4c(c(-c5ccc(F)cc5)n3)OC[C@]4(C)C(N)=O)C(F)(F)F)cc2c1` [Example 221], the EC50 [1] is reported as < 200 nM and the EC50 [2] is reported as > 500 nM.

`C[C@]1(C(N)=O)COc2c1cc([C@@](O)(CNC(=O)c1cc(NC(=O)N3CCC3)c3ncc(Cl)cc3c1)C(F)(F)F)nc2-c1ccc(F)cc1` [Example 222] was tested, and the EC50 [1] was < 200 nM and the EC50 [2] was > 500 nM.

`Cc1cnc2c(NC(N)=O)cc(C(=O)NC[C@](O)(c3cc4c(c(-c5ccc(F)cc5)n3)OC[C@]4(C)C(N)=O)C(F)(F)F)cc2c1` [Example 223] was tested, and the EC50 [1] was < 200 nM and the EC50 [2] was > 500 nM.

For `C[C@]1(C(N)=O)COc2c1cc([C@@](O)(CNC(=O)c1cc(NC(N)=O)c3ncc(Cl)cc3c1)C(F)(F)F)nc2-c1ccc(F)cc1` [Example 224], the EC50 [1] was < 200 nM and the EC50 [2] was > 500 nM.

With `Cc1cnc2c(NC(=O)N3CCCC3)cc(C(=O)NC[C@](O)(c3cc4c(c(-c5ccc(F)cc5)n3)OC[C@]4(C)C(N)=O)C(F)(F)F)cc2c1` [Example 226] the EC50 [1] was < 200 nM and the EC50 [2] was > 500 nM.

`CC[C@]1(C(N)=O)COc2c1cc([C@@](O)(CNC(=O)c1cc(OC)c3nn(C(F)F)cc3c1)C(F)(F)F)nc2-c1ccc(F)cc1` [Example 234] was tested, and the EC50 [1] was < 200 nM and the EC50 [2] was < 500 nM.

`CC[C@]1(C(N)=O)COc2c1cc([C@@](O)(CNC(=O)c1cc(OC3CC3)c3ncccc3c1)C(F)(F)F)nc2-c1ccc(F)cc1` [Example 235] was tested, and the EC50 [1] was < 200 nM and the EC50 [2] was < 500 nM.

In the case of `NC(=O)[C@@]1(C2CC2)COc2c1cc([C@@](O)(CNC(=O)c1cc(F)c3nc(N)sc3c1)C(F)(F)F)nc2-c1ccc(F)cc1` [Example 263], the EC50 [1] is reported as < 200 nM and the EC50 [2] is reported as < 500 nM.

For `COc1cc(C(=O)NC[C@](O)(c2cc3c(c(-c4ccc(F)cc4)n2)OC[C@@]3(C(N)=O)C2CC2)C(F)(F)F)cc2cc(C(F)(F)F)cnc12` [Example 265], the EC50 [1] was < 200 nM and the EC50 [2] was < 500 nM.

`COc1cc(C(=O)NC[C@](O)(c2cc3c(c(-c4ccc(F)cc4)n2)OC[C@@]3(C(N)=O)C2CC2)C(F)(F)F)cc2cn(C(F)F)nc12` [Example 267] was tested, and the EC50 [1] was < 200 nM and the EC50 [2] was < 500 nM.

With `COc1cc(C(=O)NC[C@](O)(c2cc3c(c(-c4ccc(F)cc4)n2)OC[C@@]3(C(N)=O)C2CC2)C(F)(F)F)cc2cccnc12` [Example 268] the EC50 [1] was < 200 nM and the EC50 [2] was > 500 nM.

For `NC(=O)[C@@]1(C2CC2)COc2c1cc([C@@](O)(CNC(=O)c1cc(OC3CC3)c3ncccc3c1)C(F)(F)F)nc2-c1ccc(F)cc1` [Example 270], the EC50 [1] was < 200 nM and the EC50 [2] was < 500 nM.

`COc1cc(C(=O)NC[C@](O)(c2cc3c(c(-c4ccc(F)cc4)n2)OC[C@@]3(C(N)=O)C2CC2)C(F)(F)F)cc2cn(C3CC3)nc12` [Example 280] was tested, and the EC50 [1] was < 200 nM and the EC50 [2] was < 500 nM.

In the case of `COc1cc(C(=O)NC[C@](O)(c2cc3c(c(-c4ccc(Cl)c(F)c4)n2)OC[C@]3(C)C(N)=O)C(F)(F)F)cc2cn(C(F)F)nc12` [Example 300], the EC50 [1] is reported as < 200 nM and the EC50 [2] is reported as < 500 nM.

For `COc1cc(C(=O)NC[C@](O)(c2cc3c(c(-c4ccc(Cl)c(F)c4)n2)OC[C@]3(C)C(N)=O)C(F)(F)F)cc2cc(C3CC3)nn12` [Example 301], the EC50 [1] was < 200 nM and the EC50 [2] was < 500 nM.

`C[C@]1(C(N)=O)COc2c1cc([C@@](O)(CNC(=O)c1cc(F)c3nc(N)sc3c1)C(F)(F)F)nc2-c1ccc(Cl)c(F)c1` [Example 305] was tested, and the EC50 [1] was < 200 nM and the EC50 [2] was < 500 nM.

For `C[C@]1(C(N)=O)COc2c1cc([C@@](O)(CNC(=O)c1cc(F)c3nc(N)sc3c1)C(F)(F)F)nc2-c1ccc(Cl)c(Cl)c1` [Example 306], the EC50 [1] was < 200 nM and the EC50 [2] was < 500 nM.

In the case of `C[C@]1(C(N)=O)COc2c1cc([C@@](O)(CNC(=O)c1cc(F)c3nc(N)sc3c1)C(F)(F)F)nc2-c1ccc(Cl)cc1` [Example 307], the EC50 [1] is reported as < 200 nM and the EC50 [2] is reported as < 500 nM.

With `C[C@]1(C(N)=O)COc2c1cc([C@@](O)(CNC(=O)c1cc(F)c3nc(N)sc3c1)C(F)(F)F)nc2-c1ccc(F)c(F)c1` [Example 308] the EC50 [1] was < 200 nM and the EC50 [2] was < 500 nM.

With `C[C@]1(C(N)=O)COc2c1cc([C@@](O)(CNC(=O)c1cc(F)c3nc(N)sc3c1)C(F)(F)F)nc2-c1ccc(C#N)cc1` [Example 309] the EC50 [1] was < 200 nM and the EC50 [2] was > 500 nM.

`COc1cc(C(=O)NC[C@](O)(c2cc3c(c(-c4ccc(Cl)cc4)n2)OC[C@]3(C)C(N)=O)C(F)(F)F)cc2cc(C(F)(F)F)cnc12` [Example 314] was tested, and the EC50 [1] was < 200 nM and the EC50 [2] was < 500 nM.

With `COc1cc(C(=O)NC[C@](O)(c2cc3c(c(-c4ccc(F)c(F)c4)n2)OC[C@]3(C)C(N)=O)C(F)(F)F)cc2cc(C(F)(F)F)cnc12` [Example 315] the EC50 [1] was < 200 nM and the EC50 [2] was < 500 nM.

For `C[C@]1(C(N)=O)COc2c1cc([C@@](O)(CNC(=O)c1cc(OC3CC3)n3nc(C4CC4)cc3c1)C(F)(F)F)nc2-c1ccc(F)cc1` [Example 321], the EC50 [1] was < 200 nM and the EC50 [2] was < 500 nM.

In the case of `COc1cc(C(=O)NC[C@](O)(c2cc3c(c(-c4ccc(F)cc4)n2)OC[C@]3(C)C(N)=O)C(F)(F)F)cc2cc(C3CCC3)nn12` [Example 322], the EC50 [1] is reported as < 200 nM and the EC50 [2] is reported as > 500 nM.

In the case of `COc1cc(C(=O)NC[C@](O)(c2cc3c(c(-c4ccc(F)cc4)n2)OC[C@]3(C)C(N)=O)C(F)(F)F)cc2cn(C3CCC3)nc12` [Example 323], the EC50 [1] is reported as < 200 nM and the EC50 [2] is reported as > 500 nM.

`COc1cc(C(=O)NC[C@](O)(c2cc3c(c(-c4ccc(F)c(Cl)c4)n2)OC[C@]3(C)C(N)=O)C(F)(F)F)cc2cn(C3CCC3)nc12` [Example 324] was tested, and the EC50 [1] was < 200 nM and the EC50 [2] was < 500 nM.

With `Cc1ccc2cc(C(=O)NC[C@](O)(c3cc4c(c(-c5ccc(F)cc5)n3)OC[C@]4(C)C(N)=O)C(F)(F)F)cc(OC(F)F)c2n1` [Example 327] the EC50 [1] was < 200 nM and the EC50 [2] was > 500 nM.

`[2H]C([2H])([2H])NC(=O)Nc1cc(C(=O)NC[C@](O)(c2cc3c(c(-c4ccc(F)cc4)n2)OC[C@]3(C)C(N)=O)C(F)(F)F)cc2cc(C)cnc12` [Example 329] was tested, and the EC50 [1] was < 200 nM and the EC50 [2] was < 500 nM.

For `COc1cc(C(=O)NC[C@](O)(c2cc3c(c(-c4ccc(F)cc4)n2)OC[C@]3(C)C(N)=O)C(F)(F)F)cc2c1OCO2` [Example 441], the EC50 [1] was < 200 nM and the EC50 [2] was > 500 nM.
